The test system of series [1] is histamine. Put plainly: In vitro antihistamine activity: histamine concentration-response curves on isolated ileum longitudinal muscle, Schild plot. The series is classed as cell-based, guinea-pigs. Conditions: guinea-pig ileum longitudinal muscle, one hour incubation with test compound, antagonism of histamine; for pA2: 60 min; for Kb: Cavia porcellus, 1 h, read-out: pA2 (converted). The method, then: A. In vitro antihistamine activity: The longitudinal muscle was isolated from the intact ileum of guinea-pigs (Hartley, male 250-400g) and placed in an organ bath under 300 mg tension. […] Following washing, the tissues were incubated for one hour with the test compound and then a second histamine concentration-response curve was run. […] Regression of Log (dr-1) on Log [B], where dr is an equiactive response in the presence and absence of antagonist and [B] is the molar concentration of antagonist, allowed an estimate of pA2, i.e. the negative log of the concentration of antagonist which shifts the control histamine concentration response curve 2X to the right.

Another series deals with compound 48/80. Briefly: Inhibition of compound 48/80 induced anaphylactoid reaction. Conditions: Rattus norvegicus, rats, compound administered 2 hrs. prior to test, read-out: ED50 (dose providing 50% protection against death induced by compound 48/80). The series is classed as in vivo, Wister rats. The method, then: Non-fasted, Wister rats (180-300g).were dosed with the test compound, (i.p. or p.o.) 2 hours before compound 48/80 challenge. One hour prior to challenge, 5 mg/kg i.p. of propranolol was administered. The anaphylactoid inducing agent, compound 48/80, was given intravenously at 2 mg/kg and the animals were monitored for symptoms of respiratory distress.
Data were analyzed by Probit determinations. the response was quantitated by determining the dose of test compound which protected 50% of the animals from death at a given time point.
Agents which block the effects of compound 48/80 are commonly classified as inhibitors of anaphylactic mediators or inhibitors of the release of anaphylic mediators.

The subject of series [2] is histamine. Put plainly: In vivo antihistaminic activity: protection against histamine aerosol challenge. Conditions: Cavia porcellus, po, guinea pigs.
Protocol: B. In vivo Antihistaminic Activity: Guinea pigs (Hartley, male, 300-350 g) were fasted for 20 hours and then dosed p.o. or i.p. with the test compound. One hour after dosing, on an individual basis, the guinea pigs were placed in a clear plastic chamber which was saturated and continually gassed with 0.25% histamine from an aerosol nebulizer. The guinea pigs were monitored for signs of histamine anaphylaxis (e.g. cough, sneeze, strong abdominal movements, cyanoses or loss of righting). […] ED50's for protection against histamine were calculated by probit analysis. […] Complete protection was defined as no histamine symptoms for six minutes in the aerosol chamber (approximately 10X the collapse time of the control animals).
The nature of series [3]: Pharmacokinetic studies: relative distribution in brain and plasma. The format is in vivo. The conditions noted are these: rodents, compared with promethazine.
Series [4] in a line: Acute toxicity (approximate LD50). Conditions: rat, in vivo, rats.

Like-named read-outs stand apart in the source and are kept apart here.

The source of these data is patent publication EP0117302A2, “Phenothiazine derivatives” (THE WELLCOME FOUNDATION LIMITED, priority 1982, dated 1984).

For orientation: pA2 means a measure of antagonist potency on a negative log scale. A low value points to a weaker antagonist. What is called LD50 is the dose expected to kill half of the subjects tested. A low value points to greater toxicity.

Turning to “4 (or 1)-(2-carboxyethyl)-10-(2-dimethylaminopropyl)-phenothiazine [Compound I]”, the pA2 in the series with histamine [1] amounted to 7.2.

“10-(2-dimethylaminopropyl)phenothiazine-4(or 1)-carboxylic acid [Compound G]” returned a pA2 in the series with histamine [1] of 6.8.

Turning to `COc1ccc(CCN2CCC(Nc3nc4ccccc4n3Cc3ccc(F)cc3)CC2)cc1` [Astemizole, reference compound], the ED50 with compound 48/80 (ip) was 1.08 mg/kg.

Take `CC(CN1c2ccccc2Sc2ccc(/C=C/C(=O)O)cc21)N(C)C` (stereo not drawn) [Compound A, trans-β-[10-(2-Dimethylaminopropyl)phenothiazin-2-yl]acryiic acid]: the Kb with histamine [1] is 6.31 nM. In addition, the ED50 stood at 1.7 mg/kg with histamine [2] (0.25% histamine aerosol, 1 hour post-dosing, read-out: ED50); 11 mg/kg with histamine [2] (24 hours protection, read-out: ED50 for 24 hours protection); 2.64 mg/kg in the series on compound 48/80 (ip). For the same compound, the brain penetration result in series [3] is listed as “do not readily penetrate the brains of rodents”.

As to `CC(CN1c2ccccc2Sc2ccc(CC(=O)O)cc21)N(C)C` (centres unmarked) [Compound B, 2-[10-(2-Dimethylaminopropyl)phenothiazin-2-yl]acetic acid], in the series on histamine [1], the Kb is 0.398 nM. Also, the ED50 was 0.3 mg/kg with histamine [2] (0.25% histamine aerosol, 4 hours post dosing, read-out: ED50); 0.89 mg/kg in the series with compound 48/80 (ip); 1.2 mg/kg with compound 48/80 (po). Besides, the results for the median lethal dose (LD50) in series [4] (ip) and in series [4] (po) were roughly 210 mg/kg and greater than 500 mg/kg, respectively. Further, the brain penetration result in series [3] is “do not readily penetrate the brains of rodents”.

With `CC(C(=O)O)c1ccc2c(c1)N(CC(C)N(C)C)c1ccccc1S2` (centres unmarked) [Compound C, 2-[10-(2-Dimethylaminopropyi)phenothiazin-2-yl]propionic acid], the Kb in the series on histamine [1] is 7.94 nM. The ED50 with compound 48/80 (ip) was 1.43 mg/kg.

For the compound `CC(CN1c2ccccc2Sc2cc(C(=O)O)ccc21)N(C)C` (centres unmarked) [Compound D, 10-(2-dimethylaminopropyI)phenothiazine-3-carboxylic acid], the Kb in the series with histamine [1] was 631 nM.

For `CC(CN1c2ccccc2Sc2cc(/C=C/C(=O)O)ccc21)N(C)C` (centres unmarked) [Compound E, E-3-(2-carboxyvinyl)-10-(2-dimethylaminopropyl)-phenothiazine], in the series on histamine [1], the Kb is 631 nM. Moreover, the ED50 with compound 48/80 (ip) stood at 3.11 mg/kg.

Turning to `CC(CN1c2ccccc2Sc2cc(CCC(=O)O)ccc21)N(C)C` (centres unmarked) [Compound F, 3-(2-carboxyethyl)-10-(2-dimethylaminopropyl)phenothiazine], in the series with histamine [1], the Kb was 6310 nM.

As for `CCOC(=O)Cc1ccc2c(c1)N(CC(C)N(C)C)c1ccc(Cl)cc1S2` (centres unmarked) [Compound J], in the series with histamine [1], the Kb is 1 nM.

Take `CC(CN1c2ccc(Cl)cc2Sc2ccc(CC(=O)O)cc21)N(C)C` (centres unmarked) [Compound K, [7-Chloro-10-(2-dimethylaminopropyl)-2-phenothiazinyl]acetic acid]: the Kb in the series on histamine [1] is 1.58 nM.

For the compound `CCOC(=O)Cc1ccc2c(c1)N(CCN(C)C)c1ccc(C)cc1S2` [Compound L, Ethyl [10-(2-dimethylaminoethyl)-7-methyl-2-phenothiazinyl]acetate], in the series on histamine [1], the Kb is 0.794 nM.

With `Cc1ccc2c(c1)Sc1ccc(CC(=O)O)cc1N2CCN(C)C` [Compound M, [10-(2-Dimethylaminoethyl)-7-methyl-2-phenothiazinyl]acetic acid], the Kb in the series with histamine [1] was 1.26 nM.

Consider `CCOC(=O)C(C)(C)c1ccc2c(c1)N(CC(C)N(C)C)c1ccccc1S2` (centres unmarked) [Compound O, Ethyl 2-[10-(2-dimethylaminopropyl)-2-phenothiazinyl]-2-methylpropionate], for which the Kb in the series with histamine [1] was 3.16 nM.

Take `CC(CN1c2ccccc2Sc2ccc(C(C)(C)C(=O)O)cc21)N(C)C` (centres unmarked) [Compound P]: the Kb in the series on histamine [1] was 1.58 nM.

Turning to `CN(C)CCCN1c2ccccc2Sc2ccc(C(C)(C)C(=O)O)cc21` [Compound Q, 2-[10(3-dimethylaminopropyl)-2-phenothiazinyl]-2-methylpropionic acid], the Kb in the series on histamine [1] was 2 nM.

Regarding `CC(CN1c2ccccc2Sc2ccc(C(=O)O)cc21)N(C)C` (centres unmarked) [Compound S, 10-(2-Dimethylaminopropyl)phenothiazin-2-yl-carboxylic acid], the Kb in the series on histamine [1] is 1 nM.

In the case of `CN1CCC(=C2c3ccccc3CC(=O)c3sccc32)CC1` [Ketotifen, reference compound], the ED50 with compound 48/80 (ip) is 0.87 mg/kg.

In turn, “E-4 (or 1)-(2-carboxyvinyl)-10-(2-dimethylaminopropyl)phenothiazine [Compound H]” yielded a pA2 with histamine [1] of 7.8.

In turn, “[10-(2-diethylaminoethyl)-7-fluoro-2-phenothiaznyl]acetic acid [Compound N]” registered a pA2 with histamine [1] of 8.6.
